The structures appear in SMILES notation.

This assay concerns the target T1, CmLOX10 (Cucumis melo, UniProt A0A125S6K7).
T1 construct: gene LOX10; full-length 902 residues incl. predicted 37-residue transit peptide; N-terminal His tag (pET-30a), E. coli BL21(DE3), Ni-NTA
T1 sequence (A0A125S6K7 1-902): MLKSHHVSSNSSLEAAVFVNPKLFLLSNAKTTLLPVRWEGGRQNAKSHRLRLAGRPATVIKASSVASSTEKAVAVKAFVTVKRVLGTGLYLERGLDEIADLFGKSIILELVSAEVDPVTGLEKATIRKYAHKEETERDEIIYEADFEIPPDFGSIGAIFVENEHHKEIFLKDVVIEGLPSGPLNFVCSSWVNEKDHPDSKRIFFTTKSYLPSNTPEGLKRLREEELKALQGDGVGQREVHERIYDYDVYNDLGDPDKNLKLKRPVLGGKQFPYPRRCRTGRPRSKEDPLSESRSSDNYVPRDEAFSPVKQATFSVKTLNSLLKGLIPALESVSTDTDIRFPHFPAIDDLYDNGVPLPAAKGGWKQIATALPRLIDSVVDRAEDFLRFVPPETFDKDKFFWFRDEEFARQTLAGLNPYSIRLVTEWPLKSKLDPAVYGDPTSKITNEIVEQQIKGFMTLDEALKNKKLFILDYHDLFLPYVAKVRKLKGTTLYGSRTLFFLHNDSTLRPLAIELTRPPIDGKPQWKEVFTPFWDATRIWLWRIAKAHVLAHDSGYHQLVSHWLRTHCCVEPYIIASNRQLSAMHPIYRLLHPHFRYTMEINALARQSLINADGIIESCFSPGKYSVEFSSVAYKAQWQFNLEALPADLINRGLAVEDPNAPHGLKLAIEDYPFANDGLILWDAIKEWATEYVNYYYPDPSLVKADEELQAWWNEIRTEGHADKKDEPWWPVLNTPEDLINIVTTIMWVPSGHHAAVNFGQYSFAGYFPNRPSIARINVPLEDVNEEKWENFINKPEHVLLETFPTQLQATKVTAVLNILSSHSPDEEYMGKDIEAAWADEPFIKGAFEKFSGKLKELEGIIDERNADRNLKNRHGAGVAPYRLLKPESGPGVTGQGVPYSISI
Description: conjugated diene formation at […] nm, Michaelis-Menten. In kind it is biochemical. Conditions: 25 °C, saturating oxygen, 16.5-330 μM substrate; pH of kinetics not stated explicitly (optimum pH 5.0).

For the compound `CC/C=C\C/C=C\C/C=C\CCCCCCCC(=O)O` [linolenic acid], the Km is 140 µM.

Take `CCCCC/C=C\C/C=C\CCCCCCCC(=O)O` [linoleic acid]: the Km turned out to be 230 µM.

In general, Km refers to the substrate concentration at which the rate is half of its maximum.
